# Results taken from patent US11649236B2, “Polycyclic carbamoylpyridone derivative” (Shionogi & Co., Ltd., priority 2018, dated 2023).
# Tested on: HIV
# Assay: Anti-HIV activity (MT-4 cells, MTT)
# Assay type: cell-based
# Settings: Human immunodeficiency virus 1, MT4, 96 h, cultured 4 days
# Procedure: Serial dilutions of a test sample were prepared in a 96-well microplate (50 μL/well). 2.5×10^5 cells/mL of a MT-4 cell suspension was dispensed at 100 μL/well to the plate containing the test sample. Then, an HIV virus solution was dispensed at 50 μL/well. The plate was mixed with a plate mixer and cultured for 4 days in a CO2 incubator. An MTT (3-(4,5-dimethylthiazol-2-yl)-2,5-diphenyltetrazolium bromide) solution was dispensed at 30 μL/well. The plate was reacted for 1 hour in a CO2 incubator. 150 μL of the supernatant was removed from each well so as not to take up the cells. 150 μL of a cell lysis solution was added to each well and well mixed with a plate mixer until the cells were completely lysed. The absorbance of the mixed plate was measured at two wavelengths of 560 nm and 690 nm with a microplate reader.
row,EC50 [nM],SMILES
1,0.52,CCN1C(=O)c2c(O)c(=O)c(C(=O)NCc3ccc(F)cc3F)cn2N2CCOC[C@@H]12 [Compound I-001]
2,1.4,CCN1C(=O)c2c(O)c(=O)c(C(=O)NCc3ccc(F)c(Cl)c3F)cn2N2CCCC[C@@H]12 [Compound I-003]
3,0.56,CCN1C(=O)c2c(O)c(=O)c(C(=O)NCc3ccc(F)c(Cl)c3F)cn2N2CCOC[C@@H]12 [Compound I-004]
4,1.3,CCN1C(=O)c2c(O)c(=O)c(C(=O)NCc3ccc(F)c(Cl)c3F)cn2N2CCC[C@@H]12 [Compound I-005]
5,4,CCN1C(=O)c2c(O)c(=O)c(C(=O)NCc3cc(Cl)c(F)cc3F)cn2N2CCCC[C@@H]12 [Compound I-007]
6,2,CCN1C(=O)c2c(O)c(=O)c(C(=O)NCc3ccc(F)cc3F)cn2N2CCC[C@@]12C [Compound I-008]
7,1.2,CCN1C(=O)c2c(O)c(=O)c(C(=O)NCc3ccc(F)cc3F)cn2N2CCN(C(=O)OC(C)(C)C)C[C@@H]12 [Compound I-009]
8,1.9,CCN1C(=O)c2c(O)c(=O)c(C(=O)NCc3ccc(F)cc3F)cn2N2CCNC[C@@H]12 [Compound I-010]
9,4,CCN1C(=O)c2c(O)c(=O)c(C(=O)NCc3ccc(F)c(C)c3F)cn2N2CCCC[C@@H]12 [Compound I-012]
10,5.6,CCN1C(=O)c2c(O)c(=O)c(C(=O)NCc3ccc(F)cc3F)cn2N2CCN(C)C[C@@H]12 [Compound I-013]
11,10,CCN1C(=O)c2c(O)c(=O)c(C(=O)NCc3ccc(Br)cc3F)cn2N2CCCC[C@@H]12 [Compound I-014]
12,1.4,COCCN1C(=O)c2c(O)c(=O)c(C(=O)NCc3ccc(F)cc3F)cn2N2CCCC[C@@H]12 [Compound I-016]
13,6.1,CCN1C(=O)c2c(O)c(=O)c(C(=O)NC3(c4ccc(F)cc4F)CC3)cn2N2CCCC[C@@H]12 [Compound I-017]
14,2.1,CCN1C(=O)c2c(O)c(=O)c(C(=O)NCc3ccc(F)cc3F)cn2N2Cc3ccccc3[C@@H]12 [Compound I-018]
15,1.8,CCN1C(=O)c2c(O)c(=O)c(C(=O)NCc3cccc(Cl)c3F)cn2N2CCCC[C@@H]12 [Compound I-019]
16,1.3,CCN1C(=O)c2c(O)c(=O)c(C(=O)NCc3ccc(F)cc3F)cn2N2CCCC(C)(C)[C@@H]12 [Compound I-020]
17,1.1,CCCN1C(=O)c2c(O)c(=O)c(C(=O)NCc3ccc(F)cc3F)cn2N2CCCC[C@@H]12 [Compound I-021]
18,1.1,O=C(NCc1ccc(F)cc1F)c1cn2c(c(O)c1=O)C(=O)N(C[C@H]1CCCO1)[C@@H]1CCCCN12 [Compound I-022]
19,0.62,O=C(NCc1ccc(F)cc1F)c1cn2c(c(O)c1=O)C(=O)N(C[C@@H]1CCCO1)[C@@H]1CCCCN12 [Compound I-023]
20,2.9,COCCCN1C(=O)c2c(O)c(=O)c(C(=O)NCc3ccc(F)cc3F)cn2N2CCCC[C@@H]12 [Compound I-024]
21,1.9,CCN1C(=O)c2c(O)c(=O)c(C(=O)NCc3ccc(F)c(F)c3F)cn2N2CCCC[C@@H]12 [Compound I-025]
22,3.5,O=C(NCc1ccc(F)cc1F)c1cn2c(c(O)c1=O)C(=O)N(C1CCCC1)[C@@H]1CCCCN12 [Compound I-026]

row,EC50 [nM],SMILES
1,0.89,CCN1C(=O)c2c(O)c(=O)c(C(=O)NCc3ccc(F)cc3F)cn2N2CCc3ccccc3[C@@H]12 [Compound I-027]
2,1.9,O=C(NCc1ccc(F)cc1F)c1cn2c(c(O)c1=O)C(=O)N(CC1CC1)[C@@H]1CCCCN12 [Compound I-028]
3,12,CCN1C(=O)c2c(O)c(=O)c(C(=O)N[C@H](C)c3ccc(F)cc3F)cn2N2CCCC[C@@H]12 [Compound I-029]
4,36,CCN1C(=O)c2c(O)c(=O)c(C(=O)N[C@@H](C)c3ccc(F)cc3F)cn2N2CCCC[C@@H]12 [Compound I-030]
5,0.69,O=C(NCc1ccc(F)cc1F)c1cn2c(c(O)c1=O)C(=O)N(C1CC1)[C@@H]1CCCCN12 [Compound I-031]
6,1.2,CCN1C(=O)c2c(O)c(=O)c(C(=O)NCc3ccc(F)cc3F)cn2N2CCCCC[C@@H]12 [Compound I-032]
7,2.5,CCN1C(=O)c2c(O)c(=O)c(C(=O)NCc3cccc(Cl)c3Cl)cn2N2CCCC[C@@H]12 [Compound I-033]
8,1.3,CCN1C(=O)c2c(O)c(=O)c(C(=O)NCc3ccc(F)c(Cl)c3)cn2N2CCCC[C@@H]12 [Compound I-034]
9,3.2,CCN1C(=O)c2c(O)c(=O)c(C(=O)NCc3ccc(Cl)cc3F)cn2N2CCCC[C@@H]12 [Compound I-035]
10,1.4,CCN1C(=O)c2c(O)c(=O)c(C(=O)NCc3cc(F)c(F)cc3F)cn2N2CCCC[C@@H]12 [Compound I-036]
11,2,CCN1C(=O)c2c(O)c(=O)c(C(=O)NCc3cc(F)c(F)c(F)c3)cn2N2CCCC[C@@H]12 [Compound I-037]
12,0.72,CCN1C(=O)c2c(O)c(=O)c(C(=O)NCc3ccc(F)cc3Cl)cn2N2CCCC[C@@H]12 [Compound I-038]
13,4.4,COC[C@H](C)N1C(=O)c2c(O)c(=O)c(C(=O)NCc3ccc(F)cc3F)cn2N2CCCC[C@@H]12 [Compound I-039]
14,0.7,COC[C@@H](C)N1C(=O)c2c(O)c(=O)c(C(=O)NCc3ccc(F)cc3F)cn2N2CCCC[C@@H]12 [Compound I-040]
15,0.66,C[C@@H](N1C(=O)c2c(O)c(=O)c(C(=O)NCc3ccc(F)cc3F)cn2N2CCCC[C@@H]12)C(F)(F)F [Compound I-041]
16,0.72,CCN1C(=O)c2c(O)c(=O)c(C(=O)NCc3cccc(F)c3F)cn2N2CCCC[C@@H]12 [Compound I-042]
17,3.5,O=C(NCc1ccc(F)cc1F)c1cn2c(c(O)c1=O)C(=O)N(Cc1ccc(F)cc1F)[C@@H]1CCCCN12 [Compound I-043]
18,1.2,O=C(NCc1ccc(F)cc1F)c1cn2c(c(O)c1=O)C(=O)N([C@@H]1C[C@@H]1F)[C@@H]1CCCCN12 [Compound I-044]
19,0.73,O=C(NCc1ccc(F)cc1F)c1cn2c(c(O)c1=O)C(=O)N(CCF)[C@@H]1CCCCN12 [Compound I-045]
20,0.43,O=C(NCc1ccc(F)cc1F)c1cn2c(c(O)c1=O)C(=O)N(CC(F)F)[C@@H]1CCCCN12 [Compound I-046]
21,1.5,O=C(NCc1ccc(F)cc1F)c1cn2c(c(O)c1=O)C(=O)N(CCCF)[C@@H]1CCCCN12 [Compound I-047]
22,1.2,CCN1C(=O)c2c(O)c(=O)c(C(=O)NCc3c(F)ccc(Cl)c3F)cn2N2CCCC[C@@H]12 [Compound I-048]

row,EC50 [nM],SMILES
1,2.3,CCN1C(=O)c2c(O)c(=O)c(C(=O)NCc3c(Cl)ccc(Cl)c3F)cn2N2CCCC[C@@H]12 [Compound I-049]
2,0.72,O=C(NCc1ccc(F)cc1F)c1cn2c(c(O)c1=O)C(=O)N(C1CC(F)(F)C1)[C@@H]1CCCCN12 [Compound I-051]
3,5.5,O=C(NCc1ccc(F)cc1F)c1cn2c(c(O)c1=O)C(=O)N(C1CCC(F)(F)CC1)[C@@H]1CCCCN12 [Compound I-052]
4,0.94,O=C(NCc1ccc(F)cc1F)c1cn2c(c(O)c1=O)C(=O)N(CC(F)(F)F)[C@@H]1CCCCN12 [Compound I-053]
5,1,CC(C)N1C(=O)c2c(O)c(=O)c(C(=O)NCc3c(F)cc(F)cc3F)cn2N2C[C@@H](C)CC[C@@H]12 [II-001]
6,0.77,COC[C@@H](C)N1C(=O)c2c(O)c(=O)c(C(=O)NCc3cccc(Cl)c3F)cn2N2CC[C@H](C)C[C@@H]12 [II-002]
7,6.2,CCN1C(=O)c2c(O)c(=O)c(C(=O)NC3(c4cccc(Cl)c4F)CC3)cn2N2CCCC[C@@H]12 [II-003]
8,0.58,COC[C@@H](C)N1C(=O)c2c(O)c(=O)c(C(=O)NCc3cccc(Cl)c3F)cn2N2CCCC[C@@H]12 [II-006]
9,0.62,C[C@H]1CC[C@H]2N(C)C(=O)c3c(O)c(=O)c(C(=O)NCc4c(F)cc(F)cc4F)cn3N2C1 [II-007]
10,1.5,CCN1C(=O)c2c(O)c(=O)c(C(=O)NCc3cccc(Cl)c3F)cn2N2[C@H](C)CC[C@@H]12 [II-008]
11,1,COC[C@@H]1CC[C@H]2N(C(C)C)C(=O)c3c(O)c(=O)c(C(=O)NCc4ccc(F)cc4F)cn3N12 [II-010]
12,0.49,COC[C@@H]1CC[C@H]2N(C(C)C)C(=O)c3c(O)c(=O)c(C(=O)NCc4c(F)cc(F)cc4F)cn3N12 [II-011]
13,3.6,CCN1C(=O)c2c(O)c(=O)c(C(=O)N[C@H](C)c3cccc(Cl)c3F)cn2N2CCCC[C@@H]12 [II-012]
14,0.55,C[C@@H]1CCC[C@H]2N(C)C(=O)c3c(O)c(=O)c(C(=O)NCc4cccc(Cl)c4F)cn3N12 [II-014]
15,0.65,CCN1C(=O)c2c(O)c(=O)c(C(=O)NCc3c(F)cc(F)cc3F)cn2N2C[C@@H]3CCC[C@@H](C3)[C@@H]12 [II-016]
16,1.6,CCN1C(=O)c2c(O)c(=O)c(C(=O)NCc3ccc(F)cc3F)cn2N2CCC3(CCC3)C[C@@H]12 [II-017]
17,0.23,CCN1C(=O)c2c(O)c(=O)c(C(=O)NCc3nccc(Cl)c3F)cn2N2CCCC[C@@H]12 [II-019]
18,3.8,CN1C(=O)c2c(O)c(=O)c(C(=O)NCc3ccc(Cl)cc3F)cn2N2Cc3ccccc3[C@@H]12 [II-029]
19,1.5,CCN1C(=O)c2c(O)c(=O)c(C(=O)NCc3cccc(Cl)c3F)cn2N2[C@H](C)CCC[C@@H]12 [II-032]
20,0.22,CN1C(=O)c2c(O)c(=O)c(C(=O)NCc3ccc(F)c(Cl)c3F)cn2N2CCCC[C@@H]12 [II-033]
21,0.73,CCOC[C@@H](C)N1C(=O)c2c(O)c(=O)c(C(=O)NCc3ccc(F)cc3F)cn2N2CCCC[C@@H]12 [II-034]

row,SMILES,EC50 [nM]
1,CCN1C(=O)c2c(O)c(=O)c(C(=O)NCc3ccc(F)cc3F)cn2N2[C@@H]3CCC[C@@H]3C[C@@H]12 [II-025],1.1
2,CCN1C(=O)c2c(O)c(=O)c(C(=O)NCc3ccc(F)cc3F)cn2N2[C@H]3CCC[C@H]3CC[C@@H]12 [II-030],0.86
